Test results taken from article PMC10031466, “The ROK kinase N-acetylglucosamine kinase uses a sequential random enzyme mechanism with successive conformational changes upon each substrate binding” (The Journal of Biological Chemistry, 2023).

Columns and labels:
[1] = molecular target: T1, N-acetylglucosamine kinase (PsNagK) (Plesiomonas shigelloides, UniProt R8APY9); test: crystal structures (binary 7PA1; ternary with GlcNAc 7P9P); isothermal differential scanning fluorimetry; format: binding
T1 construct: gene nagK; His-SUMO tagged P. shigelloides NagK (crystallization)
T1 sequence (R8APY9 1-303): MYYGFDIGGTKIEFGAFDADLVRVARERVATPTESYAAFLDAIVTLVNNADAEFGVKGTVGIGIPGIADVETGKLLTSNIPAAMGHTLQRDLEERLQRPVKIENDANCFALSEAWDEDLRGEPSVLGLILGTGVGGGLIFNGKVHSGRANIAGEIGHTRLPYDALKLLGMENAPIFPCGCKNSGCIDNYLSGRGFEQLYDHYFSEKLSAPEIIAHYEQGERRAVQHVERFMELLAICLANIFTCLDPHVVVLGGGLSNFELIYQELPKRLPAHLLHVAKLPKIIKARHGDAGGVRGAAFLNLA

[2] = molecular target: T1, N-acetylglucosamine kinase (PsNagK); test: crystal structure; isothermal differential scanning fluorimetry; format: binding

## Nc1ncnc2c1ncn2[C@@H]1O[C@H](COP(=O)(O)OP(=O)(O)NP(=O)(O)O)[C@@H](O)[C@H]1O [AMP-PNP]
[1]
  Kd: 2200 ± 600 µM

## CC(=O)N[C@@H]1[C@@H](O)[C@H](O)[C@@H](CO)O[C@@H]1O [GlcNAc, N-acetyl-D-glucosamine]
[2]
  Kd: 230 ± 20 µM
